Measurements as given in publication PMC8234273, “A Sesquiterpene Synthase from the Endophytic Fungus Serendipita indica Catalyzes Formation of Viridiflorol” (Biomolecules, 2021).

Biological target: T1, SiTPS (Serendipita indica, UniProt G4TNA6)
T1 construct: gene PIIN_06735; full coding region from S. indica cDNA, C-terminal His-tag (pET28b+), E. coli C41, His SpinTrap purified and desalted
T1 sequence (G4TNA6 1-515): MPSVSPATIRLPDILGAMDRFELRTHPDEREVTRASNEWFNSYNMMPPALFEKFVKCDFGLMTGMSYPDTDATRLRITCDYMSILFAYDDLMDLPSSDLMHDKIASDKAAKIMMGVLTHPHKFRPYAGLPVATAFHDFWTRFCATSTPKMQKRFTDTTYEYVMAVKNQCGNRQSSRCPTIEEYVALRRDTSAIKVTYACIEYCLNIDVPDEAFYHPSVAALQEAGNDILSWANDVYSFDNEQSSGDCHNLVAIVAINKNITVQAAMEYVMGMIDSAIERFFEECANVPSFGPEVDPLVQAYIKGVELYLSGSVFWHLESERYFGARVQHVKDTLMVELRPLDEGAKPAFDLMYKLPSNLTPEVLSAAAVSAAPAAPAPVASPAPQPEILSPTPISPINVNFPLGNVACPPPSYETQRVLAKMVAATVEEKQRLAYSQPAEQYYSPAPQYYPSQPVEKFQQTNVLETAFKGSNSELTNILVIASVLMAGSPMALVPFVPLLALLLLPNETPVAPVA
Assay: in vitro terpene synthase assay, GC-MS of hexane extract
Assay type: biochemical
Conditions: 10 mM MgCl2, 100 mM KCl, 5 mM DTT, 10% glycerol, 50 mM HEPES pH 7.2, 30 °C, 1 h

## CC(C)=CCC/C(C)=C/CC/C(C)=C/COP(=O)(O)OP(=O)(O)O [E,E-FPP]
  in vitro terpene synthase assay, GC-MS of hexane extract: Hexane extracts showed activity only when SiTPS was incubated with E,E-FPP
